# Reference: ChEMBL document CHEMBL5053527, “Design, synthesis, and pharmacological profiling of cannabinoid 1 receptor allosteric modulators: Preclinical efficacy of C2-group GAT211 congeners for reducing intraocular pressure” (Bioorg Med Chem, 2021)
# pEC50, pKi: −log10 of the molar value. Activity calls are given as the source filed them. The calls are words filed in the database; no cut-off is given here.
# Columns and labels:
# Cannabinoid receptor 1 [1] = biological target: T1, Cannabinoid receptor 1 (Homo sapiens, UniProt P21554); assay: Positive allosteric modulation of human CB1 receptor expressed in CHO-K1 cells assessed as inhibition of forskolin-induced cAMP production incubated for 30 mins in presence of forskolin by HitHunter chemiluminescence based assay; assay type: functional, cell-based
# Cannabinoid receptor 1 [2] = biological target: T1, Cannabinoid receptor 1; assay: Positive allosteric modulation of human CB1 receptor expressed in CHO-K1 cells assessed as inhibition of forskolin-induced cAMP production by measuring maximum efficacy incubated for 30 mins in presence of forskolin by HitHunter chemiluminescence based assay relative to control; assay type: functional, cell-based
# Cannabinoid receptor 1 [3] = biological target: T1, Cannabinoid receptor 1; assay: Positive allosteric modulation of human CB1 receptor expressed in CHO-K1 cells assessed as beta-arrestin 2 recruitment incubated for 90 mins by PathHunter chemiluminescence based assay; assay type: cell-based
# Cannabinoid receptor 1 [4] = biological target: T1, Cannabinoid receptor 1; assay: Positive allosteric modulation of human CB1 receptor expressed in CHO-K1 cells assessed as beta-arrestin 2 […] by measuring maximum efficacy incubated for 90 mins by PathHunter chemiluminescence based assay relative to control; assay type: cell-based
# Cannabinoid receptor 1 [5] = biological target: T1, Cannabinoid receptor 1; assay: Potency index, ratio of GAT211 EC50 to test compound EC50 for positive allosteric modulation of human CB1 receptor expressed in CHO-K1 cells assessed as inhibition of forskolin-induced cAMP production incubated for 30 mins in presence of CP55940 by HitHunter chemiluminescence based assay; assay type: functional, cell-based
# Cannabinoid receptor 1 [6] = biological target: T1, Cannabinoid receptor 1; assay: Displacement of [3H]CP55940 from human CB1 receptor expressed in CHO-K1 cell membranes incubated for 60 mins by liquid scintillation spectrometry analysis; set-up: species or system Cell membrane
# Cannabinoid receptor 1 [7] = biological target: T1, Cannabinoid receptor 1; assay: Displacement of [3H]CP55940 from human CB1 receptor expressed in CHO-K1 cell membrane assessed as maximum efficacy incubated for 60 mins by liquid scintillation spectrometry analysis relative to control; assay type: cell membranes
# Cannabinoid receptor 1 [8] = biological target: T1, Cannabinoid receptor 1; assay: Agonist activity at human CB1 receptor expressed in CHO cell membranes assessed as increase in [35S]GTPgammaS binding incubated for 30 mins by liquid scintillation spectrometry analysis; assay type: functional, CHO-K1, Cell membrane
# Cannabinoid receptor 1 [9] = biological target: T1, Cannabinoid receptor 1; assay: Agonist activity at human CB1 receptor expressed in CHO cell membranes assessed as increase in [35S]GTPgammaS binding by measuring maximum efficacy incubated for 30 mins by liquid scintillation spectrometry analysis relative to control; assay type: functional; settings: CHO-K1, Cell membrane, filed as agonist
# Cannabinoid receptor 1 [10] = biological target: T1, Cannabinoid receptor 1; assay: Agonist activity at human CB1 receptor expressed in CHO cell membranes assessed as increase in [35S]GTPgammaS binding by measuring maximum efficacy incubated for 30 mins in presence of CP55940 by liquid scintillation spectrometry analysis relative to control; assay type: functional; settings: CHO-K1, Cell membrane, filed as agonist
# Cannabinoid receptor 1 [11] = biological target: Cannabinoid receptor 1 (Mus musculus, UniProt P47746); assay: Positive allosteric modulation of CB1 receptor in MF1 mouse vas deferens assessed as inhibition of AEA-induced electrically evoked vas deferens contraction incubated for 13 mins followed by electrical stimulation for 2 mins (Rvb= 460 nM); assay type: tissue-based
# [12] = biological target: Cannabinoid receptor 1 (Mus musculus) (UniProt P47746); assay: Positive allosteric modulation of CB1 receptor in MF1 mouse vas deferens assessed as inhibition of AEA-induced electrically evoked vas deferens contraction by measuring maximum efficacy incubated for 13 mins followed by electrical stimulation for 2 mins (Rvb= […]+/- […]% ); assay type: tissue-based; settings: filed as positive allosteric modulator
# [13] = biological target: Cannabinoid receptor 1 (Mus musculus) (UniProt P47746); assay: Agonist activity at CB1 receptor in C57BL/6 mouse hippocampal neurons assessed as inhibition of excitatory postsynaptic current at 1 uM at -70 mV holding membrane potential by whole cell patch clamp assay; assay type: functional, tissue-based; settings: Neuron, filed as agonist
# [14] = biological target: Cannabinoid receptor 1 (Mus musculus) (UniProt P47746); assay: Positive allosteric modulation of CB1 receptor in C57BL/6 mouse hippocampal neurons assessed as decrease in inhibition of DSE recovery rate at 1 uM and holding potential at 0 mV for 10 secs followed by DSE stimulation; assay type: tissue-based; settings: Neuron, filed as positive allosteric modulator, time 10.0 sec
# Mus musculus = assay: Antiglaucoma activity in normotensive C57BL/6 mouse model assessed as reduction in intraocular pressure at 5 mM administered topically measured after 1 hr; assay type: functional
# in vitro [15] = settings: human, liver microsomes
# in vitro [16] = settings: human, liver microsomes; remark: listed apart in the source
# in vitro [17] = settings: rat, liver microsomes
# in vitro [18] = settings: rat, liver microsomes; remark: listed apart in the source
# physchem = settings: PBS buffer, pH 7.4
# [19] = filed as positive allosteric modulator
# Cannabinoid receptor 1 (Mus musculus), sequence (P47746 whole entry): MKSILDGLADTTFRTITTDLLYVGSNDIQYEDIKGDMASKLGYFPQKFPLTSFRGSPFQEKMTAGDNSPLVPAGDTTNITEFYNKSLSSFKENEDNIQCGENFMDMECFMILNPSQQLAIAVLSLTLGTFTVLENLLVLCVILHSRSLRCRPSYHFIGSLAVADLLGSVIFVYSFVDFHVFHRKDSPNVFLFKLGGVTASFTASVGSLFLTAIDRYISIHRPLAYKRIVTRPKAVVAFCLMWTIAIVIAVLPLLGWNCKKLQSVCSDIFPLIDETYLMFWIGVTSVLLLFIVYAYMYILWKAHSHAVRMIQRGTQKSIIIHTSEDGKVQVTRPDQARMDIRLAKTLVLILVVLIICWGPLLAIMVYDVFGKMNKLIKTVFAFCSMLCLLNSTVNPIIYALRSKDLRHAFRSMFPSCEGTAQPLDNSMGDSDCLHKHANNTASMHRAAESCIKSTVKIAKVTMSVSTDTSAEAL
# T1 sequence (P21554 whole entry): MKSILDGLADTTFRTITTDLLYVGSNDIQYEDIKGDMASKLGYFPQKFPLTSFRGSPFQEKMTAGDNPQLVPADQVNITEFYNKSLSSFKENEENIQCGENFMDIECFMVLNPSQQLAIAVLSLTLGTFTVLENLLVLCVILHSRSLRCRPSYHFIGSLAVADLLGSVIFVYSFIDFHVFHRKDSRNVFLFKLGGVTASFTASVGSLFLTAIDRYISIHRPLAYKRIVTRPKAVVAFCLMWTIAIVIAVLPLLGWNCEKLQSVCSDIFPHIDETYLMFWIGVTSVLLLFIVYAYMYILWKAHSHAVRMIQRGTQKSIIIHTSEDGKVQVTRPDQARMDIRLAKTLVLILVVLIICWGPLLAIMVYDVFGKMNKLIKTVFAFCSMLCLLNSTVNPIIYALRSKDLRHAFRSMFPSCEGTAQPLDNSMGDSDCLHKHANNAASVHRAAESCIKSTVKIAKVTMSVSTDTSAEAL
# Cannabinoid receptor 1 (Mus musculus, UniProt P47746), sequence (P47746 whole entry): as the sequence (P47746 whole entry) above
Compound,pEC50 (Cannabinoid receptor 1 [1]),Emax (Cannabinoid receptor 1 [2]; [19]) [%],pEC50 (Cannabinoid receptor 1 [3]),Emax (Cannabinoid receptor 1 [4]) [%],also measured
O=[N+]([O-])CC(c1ccccc1)c1c(-c2ccc[nH]2)[nH]c2ccccc12 (stereo unspecified),6.66,110,< 5.00,25,–
O=[N+]([O-])CC(c1ccccc1)c1c(-c2ccn[nH]2)[nH]c2ccccc12 (stereo in doubt; 15g) [listing 1 of 2 here],–,–,–,0,Emax (Cannabinoid receptor 1 [2]): 0%
O=[N+]([O-])CC(c1ccccc1)c1c(-c2cncs2)[nH]c2ccccc12 (stereo unspecified),5.82,100,< 5.00,5.1,–
O=[N+]([O-])CC(c1ccccc1)c1c(-c2c[nH]c3ccccc23)[nH]c2ccccc12 (stereo unspecified),< 5.00,–,< 5.00,1.3,Emax (Cannabinoid receptor 1 [2]): -71%
CC(C)[Si](C(C)C)(C(C)C)n1ccc(-c2[nH]c3ccccc3c2C(C[N+](=O)[O-])c2ccccc2)c1 (stereo unspecified),6.01,120,< 5.00,-4.5,–
CC(C)(C)OC(=O)n1c(-c2[nH]c3ccccc3c2C(C[N+](=O)[O-])c2ccccc2)cc2ccccc21 (stereo unspecified),< 5.00,–,< 5.00,0,Emax (Cannabinoid receptor 1 [2]): 0%
O=[N+]([O-])CC(c1ccccc1)c1c(-c2ccco2)[nH]c2ccccc12 (stereo unspecified),6.89,140,5.68,11,–
O=[N+]([O-])CC(c1ccccc1)c1c(-c2nccs2)[nH]c2ccccc12 (stereo unspecified),6.10,72,< 5.00,2.8,–
O=[N+]([O-])CC(c1ccccc1)c1c(-c2cc3ccccc3s2)[nH]c2ccccc12 (stereo unspecified),6.82,130,< 5.00,13,–
O=[N+]([O-])CC(c1ccccc1)c1c(-c2ccsc2)[nH]c2ccccc12 (stereo unspecified),7.06,98,6.49,–,"Emax (Cannabinoid receptor 1 [4]; [19]): 46%; Ratio EC50 (Cannabinoid receptor 1 [5]): 3; pKi (Cannabinoid receptor 1 [6]): 7.37; Emax (Cannabinoid receptor 1 [7]; [19]): 100%; pEC50 (Cannabinoid receptor 1 [8]): 6.89; Emax (Cannabinoid receptor 1 [9]): 49%; Emax (Cannabinoid receptor 1 [10]): 46%; pEC50 (Cannabinoid receptor 1 [11]): 7.52; Emax [12]: 62%; inhibition [13]: Active; Activity [14]: Active; Activity (Mus musculus): 3.2 mmHg; microsomal CLint at 0.25 h, 1 µM (in vitro [15]): 111 µL/min/mg; half-life at 0.25 h, 1 µM (in vitro [16]): 20.8 min; microsomal CLint at 0.25 h, 1 µM (in vitro [17]): 489 µL/min/mg; half-life at 0.25 h, 1 µM (in vitro [18]): 4.72 min; solubility kinetic at 2 h, 200 µM (physchem): 1.56 µM"
O=[N+]([O-])CC(c1ccccc1)c1c(-c2cc[nH]c2)[nH]c2ccccc12 (stereo unspecified),< 5.00,52,< 5.00,-1.5,–
O=[N+]([O-])CC(c1ccccc1)c1c(-c2ccn[nH]2)[nH]c2ccccc12 (stereo in doubt; 15h) [listing 1 of 2 here],–,120,–,0.76,–
O=[N+]([O-])CC(c1ccccc1)c1c(-c2cc3ccccc3o2)[nH]c2ccccc12 (stereo unspecified),6.26,96,< 5.00,9.5,–
O=[N+]([O-])CC(c1ccccc1)c1c(-c2ccn[nH]2)[nH]c2ccccc12 (stereo in doubt; 15g) [listing 2 of 2 here],< 5.00,–,< 5.00,–,–
O=[N+]([O-])CC(c1ccccc1)c1c(-c2cscn2)[nH]c2ccccc12 (stereo unspecified),5.92,–,< 5.00,–,Emax (Cannabinoid receptor 1 [2]): 38%; Emax (Cannabinoid receptor 1 [4]; [19]): 45%
O=[N+]([O-])CC(c1ccccc1)c1c(-c2ccoc2)[nH]c2ccccc12 (stereo unspecified),7.00,120,< 6.00,18,–
CCCCCCC(C)(C)c1ccc([C@@H]2C[C@H](O)CC[C@H]2CCCO)c(O)c1,–,–,–,–,Emax (Cannabinoid receptor 1 [7]): -100%; Emax (Cannabinoid receptor 1 [9]): 42%
O=[N+]([O-])CC(c1ccccc1)c1c(-c2cn[nH]c2)[nH]c2ccccc12 (stereo unspecified),< 5.00,110,< 5.00,3.5,–
O=[N+]([O-])CC(c1ccccc1)c1c(-c2ccccc2)[nH]c2ccccc12 (stereo unspecified),–,–,–,–,Emax (Cannabinoid receptor 1 [7]; [19]): 57%
O=[N+]([O-])CC(c1ccccc1)c1c(-c2cccs2)[nH]c2ccccc12 (stereo unspecified),6.77,85,6.96,–,"Emax (Cannabinoid receptor 1 [4]; [19]): 57%; microsomal CLint at 0.25 h, 1 µM (in vitro [15]): 115 µL/min/mg; half-life at 0.25 h, 1 µM (in vitro [16]): 20 min; microsomal CLint at 0.25 h, 1 µM (in vitro [17]): 595 µL/min/mg; half-life at 0.25 h, 1 µM (in vitro [18]): 3.88 min; solubility kinetic at 2 h, 200 µM (physchem): 1.56 µM"
O=[N+]([O-])CC(c1ccccc1)c1c(-c2cc3ccccc3[nH]2)[nH]c2ccccc12 (stereo unspecified),< 5.00,110,< 5.00,3.3,–
O=[N+]([O-])CC(c1ccccc1)c1c(-c2ccn[nH]2)[nH]c2ccccc12 (stereo in doubt; 15h) [listing 2 of 2 here],–,–,–,–,pEC50 (Cannabinoid receptor 1 [1]; cho-k1): < 5.00; pEC50 (Cannabinoid receptor 1 [3]; cho-k1): < 5.00
